ChEMBL document CHEMBL4680193, “Isoindoline scaffold-based dual inhibitors of HDAC6 and HSP90 suppressing the growth of lung cancer in vitro and in vivo” (Eur J Med Chem, 2020)
The source made the active and inactive calls. No cut-off for these calls is given here.

Legend:
NCI-H1975 [1] = experiment: Induction of apoptosis in human NCI-H1975 cells assessed as increase in PARP activation incubated for 48 hrs by PI staining based Western blot analysis; type: functional, cell-based; settings: dose 0.1-3 µM
Homo sapiens [2] = species on record: Homo sapiens; experiment: Selectivity index, ratio of IC50 for recombinant human HDAC3 to IC50 for recombinant human HDAC6
NCI-H1975 [3] = experiment: Induction of cell cycle arrest in human NCI-H1975 cells assessed as increase in subG1 phase at 0.1 to 3 uM incubated for 48 hrs by PI staining based flow cytometry analysis; type: functional; settings: dose 0.1-3 µM
A549 = experiment: Growth inhibition of human A549 cells incubated for 48 hrs by SRB assay; type: functional; settings: Homo sapiens, A549
NCI-H1975 [4] = experiment: Inhibition of IFN-gamma-induced PD-L1 in human NCI-H1975 cells incubated for 48 hrs by Western blot analysis; type: functional, cell-based; settings: dose 0.3-3 µM
Histone deacetylase 3 = Histone deacetylase 3 (Homo sapiens, UniProt O15379)
Sequence of Histone deacetylase 3 (O15379 whole entry): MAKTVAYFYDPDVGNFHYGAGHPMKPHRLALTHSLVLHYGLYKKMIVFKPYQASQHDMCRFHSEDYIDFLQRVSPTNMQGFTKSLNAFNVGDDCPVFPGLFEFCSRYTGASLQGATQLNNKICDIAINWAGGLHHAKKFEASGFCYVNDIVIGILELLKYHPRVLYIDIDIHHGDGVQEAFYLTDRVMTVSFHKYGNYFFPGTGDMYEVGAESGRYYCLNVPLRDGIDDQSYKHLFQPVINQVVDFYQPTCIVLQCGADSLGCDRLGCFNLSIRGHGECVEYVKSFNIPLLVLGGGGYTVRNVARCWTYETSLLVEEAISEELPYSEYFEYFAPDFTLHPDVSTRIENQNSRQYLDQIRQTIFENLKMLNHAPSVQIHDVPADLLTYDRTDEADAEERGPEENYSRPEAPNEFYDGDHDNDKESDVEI

NCI-H1975 [5] = experiment: Antitumor activity against human NCI-H1975 cells xenografted in BALB/c mouse assessed as reduction in tumor growth at 100 mg/kg, ip administered for 2 weeks and measured after 2 week relative to control; type: functional; settings: 336 h, read-out: TGI
NCI-H1975 [6] = experiment: Antitumor activity against human NCI-H1975 cells xenografted in BALB/c mouse assessed as reduction in tumor growth at 50 mg/kg, ip administered for 2 weeks in presence of afatinib and measured after 2 week relative to control; type: functional; settings: 336 h, read-out: TGI
[7] = Toxicity in BALB/c mouse xenografted with human NCI-H1975 cells assessed as reduction in body weight 50 to 100 mg/kg, ip administered for 2 weeks and measured after 2 week; type: organism-based; settings: in vivo, 336 h, dose 50-100 mg/kg
Histone deacetylase 8 = biological target: T1, Histone deacetylase 8 (Homo sapiens, UniProt Q9BY41); experiment: Inhibition of recombinant human HDAC8 using RHK-K(Ac)-AMC as substrate by fluorescence based assay
T1 sequence (Q9BY41 whole entry): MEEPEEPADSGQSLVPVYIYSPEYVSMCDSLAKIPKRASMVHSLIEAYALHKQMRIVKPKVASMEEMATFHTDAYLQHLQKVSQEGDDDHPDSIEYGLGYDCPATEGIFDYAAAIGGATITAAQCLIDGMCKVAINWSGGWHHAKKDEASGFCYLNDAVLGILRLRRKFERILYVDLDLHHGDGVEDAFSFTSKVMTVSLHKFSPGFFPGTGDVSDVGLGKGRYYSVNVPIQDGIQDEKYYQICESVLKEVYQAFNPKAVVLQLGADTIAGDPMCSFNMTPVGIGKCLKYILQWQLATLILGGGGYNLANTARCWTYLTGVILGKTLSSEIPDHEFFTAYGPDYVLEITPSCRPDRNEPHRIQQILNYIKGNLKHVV

[8] = biological target: T2, Protein deacetylase HDAC6 (Homo sapiens) (UniProt Q9UBN7); experiment: Inhibition of HDAC6 in human NCI-H1975 cells assessed as increase in acetylated alpha tubulin level after 24 hrs by Western blot analysis; type: cell-based; settings: dose 0.1-3 µM
T2 sequence (whole entry): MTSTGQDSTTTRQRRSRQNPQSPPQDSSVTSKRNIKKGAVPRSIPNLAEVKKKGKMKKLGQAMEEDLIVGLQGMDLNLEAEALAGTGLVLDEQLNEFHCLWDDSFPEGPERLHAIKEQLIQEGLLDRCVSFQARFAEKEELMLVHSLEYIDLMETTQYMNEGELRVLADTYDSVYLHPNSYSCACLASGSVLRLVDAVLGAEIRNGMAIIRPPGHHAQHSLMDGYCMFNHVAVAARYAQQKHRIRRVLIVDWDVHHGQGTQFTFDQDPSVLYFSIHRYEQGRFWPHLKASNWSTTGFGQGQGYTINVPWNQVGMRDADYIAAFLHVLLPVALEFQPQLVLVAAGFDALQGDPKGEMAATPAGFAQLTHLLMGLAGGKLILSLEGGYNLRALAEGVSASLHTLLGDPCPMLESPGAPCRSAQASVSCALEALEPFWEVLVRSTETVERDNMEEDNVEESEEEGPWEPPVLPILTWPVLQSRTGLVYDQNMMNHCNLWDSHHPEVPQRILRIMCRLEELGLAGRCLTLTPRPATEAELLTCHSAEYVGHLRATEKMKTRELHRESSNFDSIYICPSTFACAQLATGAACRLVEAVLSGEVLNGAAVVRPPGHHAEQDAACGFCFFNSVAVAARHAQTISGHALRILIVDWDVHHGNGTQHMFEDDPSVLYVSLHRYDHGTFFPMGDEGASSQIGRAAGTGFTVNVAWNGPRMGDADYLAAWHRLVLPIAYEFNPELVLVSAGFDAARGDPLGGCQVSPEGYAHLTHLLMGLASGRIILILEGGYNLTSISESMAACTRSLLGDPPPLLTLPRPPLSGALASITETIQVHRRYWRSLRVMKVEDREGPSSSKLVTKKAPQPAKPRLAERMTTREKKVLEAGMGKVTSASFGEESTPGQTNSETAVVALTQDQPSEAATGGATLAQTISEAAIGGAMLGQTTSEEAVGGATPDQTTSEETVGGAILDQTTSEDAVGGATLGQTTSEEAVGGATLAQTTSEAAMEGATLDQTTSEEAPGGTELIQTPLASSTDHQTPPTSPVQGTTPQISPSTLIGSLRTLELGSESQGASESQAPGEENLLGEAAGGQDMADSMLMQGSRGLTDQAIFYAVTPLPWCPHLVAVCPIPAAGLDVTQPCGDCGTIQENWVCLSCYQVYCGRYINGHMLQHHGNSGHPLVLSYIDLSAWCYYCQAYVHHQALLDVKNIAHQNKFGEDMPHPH

[9] = biological target: T3, Heat shock protein HSP90 (Homo sapiens) (UniProt P07900+P08238); experiment: Inhibition of HSP90 in human NCI-H1975 cells assessed as downregulation of Akt expression at 0.03 to 0.3 uM measured upto 24 hrs by Western blot analysis; type: cell-based; settings: dose 0.03-0.3 µM, time hrs <=24
[10] = biological target: Heat shock protein HSP 90-alpha (Homo sapiens, UniProt P07900); experiment: Inhibition of HSP90a (unknown origin)
[11] = biological target: T3, Heat shock protein HSP90 (Homo sapiens); experiment: Inhibition of HSP90 in human NCI-H1975 cells assessed as decrease in STAT3 Tyr705 phosphorylation at 3 uM measured after 12 hrs by Western blot analysis; type: cell-based
NCI-H1975 [12] = experiment: Inhibition of IFN-gamma-induced PD-L1 in human NCI-H1975 cells at 0.3 uM incubated for 48 hrs by Flow cytometry analysis; type: functional, cell-based
Homo sapiens [13] = species on record: Homo sapiens; experiment: Selectivity index, ratio of IC50 for recombinant human C-terminal FLAG-His-tagged HDAC1 (1 to 482 residues) expressed in Sf21 cells to IC50 for recombinant human HDAC6
NCI-H1975 [14] = experiment: cells; type: functional; settings: Homo sapiens, time 48 hrs
NCI-H1975 [15] = experiment: Induction of apoptosis in human NCI-H1975 cells assessed as increase in gammaH2AX activation incubated for 48 hrs by PI staining based Western blot analysis; type: functional, cell-based; settings: dose 0.1-3 µM
Homo sapiens [16] = species on record: Homo sapiens; experiment: Selectivity index, ratio of IC50 for recombinant human HDAC8 to IC50 for recombinant human HDAC6

Q: With CC(C)c1cc(C(=O)N2Cc3ccc(NC(=O)CCCCCCCCC(=O)NO)cc3C2)c(O)cc1O as the molecule, how does the Activity (NCI-H1975 [1]) read?
A: Dose-dependent effect

Q: And the Ratio IC50 (Homo sapiens [2])?
A: 303

Q: And the Activity (NCI-H1975 [3])?
A: Active

Q: What about the GI50 (A549) of the same molecule?
A: 760 nM

Q: And the inhibition (NCI-H1975 [4])?
A: Dose-dependent effect

Q: And the IC50 (Histone deacetylase 3)?
A: 1310 nM

Q: What about the inhibition in vivo at 100 mg/kg (NCI-H1975 [5]) of the same molecule?
A: 69.7%

Q: What about the inhibition in vivo at 50 mg/kg (NCI-H1975 [6]) of the same molecule?
A: 72.3%

Q: What about the Activity [7] of the same molecule?
A: Non-Toxic

Q: And the IC50 (Histone deacetylase 8)?
A: 3720 nM

Q: What about the inhibition [8] of the same molecule?
A: Dose-dependent effect

Q: What about the inhibition [9] of the same molecule?
A: Active

Q: And the IC50 [10]?
A: 46.8 nM

Q: And the inhibition [11]?
A: Active

Q: And the inhibition (NCI-H1975 [12])?
A: Active

Q: What about the Ratio IC50 (Homo sapiens [13]) of the same molecule?
A: 434

Q: What about the GI50 (NCI-H1975 [14]) of the same molecule?
A: 520 nM

Q: What about the Activity (NCI-H1975 [15]) of the same molecule?
A: Dose-dependent effect

Q: And the Ratio IC50 (Homo sapiens [16])?
A: 861
